These are literature values, as cited in patent US9597362B2, “Use of probiotic bacteria in the treatment of infection” (TEAGASC, THE AGRICULTURE AND FOOD DEVELOPMENT AUTHORITY, priority 2003, dated 2017).

One data set has as its system Gram-positive bacteria. Conditions: including methicillin resistant staphylococci, vancomycin resistant enterococci, penicillin resistant pneumococci.

Regarding Lacticin 3147, in the data set on Gram-positive bacteria, the bactericidal spectrum entry was “kills all Gram-positive bacteria tested to date”.

For the substance Lactobacillus acidophilus, the “pathogen translocation compared with control mice” value with Salmonella typhimurium (mice fed the probiotic prior to oral challenge) was “reduced pathogen translocation to the spleen and liver”. For the same substance, in the data set with Salmonella typhimurium (probiotic-fed groups), the survival result is given as “increased survival of mice”.
